Data from patent US20030134859A1 (SANKYO COMPANY, LIMITED, priority 2000, published 2003).

Key:
[1] = test system: Mouse preadipocyte strain 3T3-L1; experiment: Inhibition of differentiation as an indication of acetic acid uptake; format: cell-based; conditions: Mus musculus, 3T3-L1, 0.1 μM test substance, control (0.01% dimethylsulfoxide) = 100%, read-out: Rate of Uptake (%) of [2-14C] acetic acid
In short: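 Differentiation is indexed by 1 hr [2-14C]acetic acid incorporation, measured by scintillation counting and given as uptake relative to 0.01% DMSO control (100%). Mouse 3T3-L1 preadipocytes, pre-grown 10 days, received 0.1 μM test substance throughout a 4-day insulin/IBMX/dexamethasone induction, followed by 2 days' maintenance culture.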

[2] = test system: human colon cancer cells COL-2-JCK; experiment: Inhibition of colony forming activity in human colon cancer cells; format: cell-based; conditions: Homo sapiens, 240 h; 1 μM test compound; 10 days; sum of colony areas vs control; read-out: Inhibition Rate (%) against the colony forming activity
In short: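 COL-2-JCK cells seeded at 300 cells/well and grown 10 days at 37 °C, 5% CO2 with compound at 1 μM final (0.1% DMSO). Colonies stained with crystal violet in formalin; inhibition % = (1 − treated/control colony area)×100.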

Q: With `Cc1csc(NC(=O)c2cc([N+](=O)[O-])ccc2Cl)n1` [Example 3, N-(4-Methylthiazol-2-yl)-(2-chloro-5-nitrophenyl)carboxamide] as the compound, how does the activity at 0.1 µM [1] read?
A: 68.9%

Q: And the inhibition at 1 µM [2]?
A: 27%

Q: For `O=C(Nc1nc2ccc(Cc3ccc(F)cc3)cc2s1)c1cc([N+](=O)[O-])ccc1Cl` [Example 90, N-[6-(4-Fluorobenzyl)benzothiazol-2-yl]-(2-chloro-5-nitrophenyl)carboxamide], which activity at 0.1 µM [1] is on record?
A: 60.5%

Q: What about the inhibition at 1 µM [2] of the same compound?
A: 47%
